We go through 1 compound from patent publication EP0404162A1, “Composition for treating pigmentation” (priority 1989, dated 1990).

The nature of series [1]: Toxicity (LD50), subcutaneous administration, mice. The conditions noted are these: mouse, in vivo, sc, read-out: LD₅₀. The procedure:
(§1) The toxicity of kojic acid which is the effective ingredient of the present invention is extremely low; LD₅₀ is 2.050 mg/kg in mice and 2.260 mg/kg in rats, by subcutaneous administration. Therefore, the present invention is quite safe as a medicament.

The nature of series [2]: Toxicity (LD50), subcutaneous administration, rats. The conditions noted are these: rat, in vivo, sc, read-out: LD₅₀. The procedure: as §1

As to `O=c1cc(CO)occ1O` [kojic acid, 5-oxy-2-oxymethyl-γ-pyrone], the LD50 is 2.05 mg/kg in series [1] and 2.26 mg/kg in series [2].
